The source of these data is publication PMC6956158, “In Vitro and In Vivo Assessment of Metabolic Drug Interaction Potential of Dutasteride with Ketoconazole” (Pharmaceutics, 2019).

Where two headings read alike, the source gives them in different places.

The Tmax is the time from dosing to the highest level. As usually defined, the AUC(0-t) is exposure summed from dosing to a finite time, without extrapolation to infinity. A higher AUC(0-t) goes with more exposure. The term Cmax denotes the peak of the concentration-time curve.

Data set [1] can be described thus: In vivo pharmacokinetic study in rats, oral DUT without or with KET. The arrangement: species or system rat. The following applies: for AUC(0-t) / Cmax: po, 5 mg/kg. An excerpt: The animal experiment protocols used in the present study were approved by the Pusan National University-Institutional Animal Care and Use Committee for scientific care and ethical procedures (Busan, Korea; approval date: 01/05/2018; approval number: PNU-2018-1848). Male Sprague–Dawley rats (8-week-old; approximately 250 g) were purchased from DBL Co., Ltd. (Incheon, Korea). The rats were acclimatized in a clean room of the Laboratory Animal Center of Pusan National University (Busan, Korea) for 1 week. Then, they were fasted for 12 h prior to the pharmacokinetic experiment and then anesthetized by intramuscular injection of Zoletil at a dose of 20 mg/kg. The femoral vein and artery of the rats were cannulated with a polyethylene tube (BD Medical; Franklin Lakes, NJ, USA). At approximately 4–6 h after the surgery for cannulation, an intravenous dose of DUT (2.5 mg/kg) simultaneously with or without intravenous KET ([…]) was administered to the rats. Drugs were dissolved in a vehicle consisting of dimethyl sulfoxide, ethanol, and polyethylene glycol 400 at a ratio of 10:5:85 (v/v/v). Blood (approximately 200 μL) was collected in heparin pre-treated microcentrifuge tubes via the femoral artery at 0, 1, 5, 15, 30, 60, 120, 180, 240, 360, 480, and 1200 min after the intravenous dose and at 0, 5, 15, 30, 60, 120, 150, 180, 240, 360, 480, and 1200 min after the oral dose. Following centrifugation of the blood samples at 3000× g at 4 °C for 10 min [19], 100 μL aliquots of plasma were stored at −80 °C.
The half maximal inhibitory concentration (IC50) of KET for the inhibition of the DUT metabolism was determined by the nonlinear regression analysis (GraphPad Prism ver. 5.01; GraphPad Software Inc., San Diego, CA, USA) based on the following Hill equation: y = Min + Max−Min/1 + (x/IC50)^-P where Max and Min are the initial and final y value, respectively, and the exponent P represents the Hill coefficient. Peak plasma concentration (Cmax) and time to reach Cmax (Tmax) were read directly from the observed data. Non-compartmental analysis was conducted to estimate pharmacokinetic parameters such as total area under plasma concentration versus time curve from time zero to time of last sampling (AUClast), total area under plasma concentration versus time curve from time zero to infinity (AUCinf), total plasma clearance (CL), volume of distribution at steady state (Vss), and terminal half-life (t1/2) using the NCA200 and 201 models of WinNonlin ver. 3.1 (Certara USA Inc., Princeton, NJ, USA).

A short description of data set [2]: Stability in rat plasma (QC samples). It is filed as in vitro ADME. The following applies: n = 5; for Stability (percent drug remaining), Autosampler: 10 °C for 24 h in the autosampler; for Stability (percent drug remaining), Bench-Top: room temperature for 3 h; for Stability (percent drug remaining), Freeze-Thaw: three freezing and thawing cycles; for Stability (percent drug remaining), Long-Term: −20 °C for 30 days. Here is the method: The bioanalytical method proposed herein for the simultaneous determination of DUT and H-DUT was fully validated on the basis of the US FDA guideline. The selectivity of the method was evaluated by comparing chromatograms of the analytes (DUT, H-DUT, and internal standard) in blank rat plasma, blank rat plasma spiked with the analytes, and rat plasma sample obtained from the in vivo rat pharmacokinetic study. Further, the existence of potential interferences at the acquisition windows of the analytes was checked. The linearity of the method was evaluated by adding increasing amounts of DUT and H-DUT to the blank plasma. To construct calibration curves (n = 5), the peak area ratios of DUT or H-DUT to the internal standard (y-axis) were plotted against the nominal concentration ratios of DUT or H-DUT (10–1000 ng/mL) to the internal standard (400 ng/mL) (x-axis), and then, linear regression analysis was performed. The sensitivity was assessed by estimating the LLOQ (signal-to-noise [S/N] ratio > 5). The peaks of the analytes at the LLOQ should be discrete, identifiable, and reproducible with acceptable precision (<20%) and accuracy (within 80–120%). The extraction recovery, matrix effect, dilution integrity, and stability (under bench-top, freeze–thaw, post-preparative, and long-term conditions) in addition to the intra-assay (five different samples) and inter-assay (five different runs) precision and accuracy for each analyte were determined at the LLOQ and three different QC levels as described in the US FDA guidelines and in previous studies.

Data set [3] in a line: Previous and preliminary rat studies of intravenous DUT. It is filed as in vivo. The following applies: rats, preliminary study.
The mark [4] stands for this setting: male, Sprague-Dawley, rat, plasma, oral DUT 5 mg/kg with oral KET (20 mg/kg), n = 4.
The mark [5] stands for this setting: male, Sprague-Dawley, rat, plasma, oral DUT 5 mg/kg, DUT alone, n = 4.

For `C[C@]12C=CC(=O)N[C@@H]1CC[C@@H]1[C@@H]2CC[C@]2(C)[C@@H](C(=O)Nc3cc(C(F)(F)F)ccc3C(F)(F)F)CC[C@@H]12` [DUT, Dutasteride], the concentration at 30 min in data set [1] (male, Sprague-Dawley, rat, plasma sample collected at 30 min after oral DUT 5 mg/kg, representative chromatogram) is 276 ng/mL. Also, the Tmax is 1 h in data set [1] (male, Sprague-Dawley, rat, plasma, oral DUT 5 mg/kg, DUT alone, median (range), n = 4, read-out: Tmax (converted)) and 1 h in data set [1] (oral DUT 5 mg/kg with oral KET (20 mg/kg), median, n = 4). Moreover, the AUC(0-t) was 6470 ng·h/mL in data set [1] (setting [4]) and 4580 ng·h/mL in data set [1] (setting [5]). Further, the Cmax in data set [1] (setting [4]) came out at 419 ± 27 ng/mL; in data set [1] (setting [5]), 289 ± 10 ng/mL. In addition, the “Stability (percent drug remaining), Autosampler” value amounted to 102 ± 2% in data set [2] (HQC 750 ng/mL), 103 ± 8% in data set [2] (LLOQ 10 ng/mL), 103 ± 1% in data set [2] (LQC 30 ng/mL) and 104 ± 2% in data set [2] (MQC 150 ng/mL). Also, the “Stability (percent drug remaining), Bench-Top” value is on record as 102 ± 0% in data set [2] (HQC 750 ng/mL), 108 ± 1% in data set [2] (LLOQ 10 ng/mL), 105 ± 6% in data set [2] (LQC 30 ng/mL) and 103 ± 1% in data set [2] (MQC 150 ng/mL). Moreover, the “Stability (percent drug remaining), Freeze-Thaw” value in data set [2] (HQC 750 ng/mL) is 100 ± 0%; in data set [2] (LLOQ 10 ng/mL), 99.3 ± 4.7%; in data set [2] (LQC 30 ng/mL), 99.7 ± 2.7%; in data set [2] (MQC 150 ng/mL), 106 ± 2%. The “Stability (percent drug remaining), Long-Term” value in data set [2] (HQC 750 ng/mL) is recorded as 105 ±1%; in data set [2] (LLOQ 10 ng/mL), 105 ± 5%; in data set [2] (LQC 30 ng/mL), 102 ± 4%; in data set [2] (MQC 150 ng/mL), 100 ± 1%. Moreover, the “renal excretion of DUT in the unchanged form” value in data set [3] is listed as “less than 1 % of intravenously administered dose”.
